Like-named read-outs stand apart in the source and are kept apart here.
Columns and labels:
[1] = tested on: C57BL/6 mice; conditions: for Number Dead on Day 3: ten mice per dose
Procedure: Single dose LD50 in C57BL/6 mice for Cpd. 1 is determined following the method of Spearman and Karber described in Basic Exercises in Immunochemistry, 1979. Briefly, 0.5 ml of each dose is given to each of ten mice. The survivors are counted after 3 days and the LD50 is calculated using the following formula: [formula] where D=fold diferences between doses, R=total number dead, and N=total number of animals tested.

[2] = tested on: CD rats; conditions: 14 days
Procedure: (§1) Single oral dose LD50 in CD-1 mice and CD rats, obtained from Charles River U.K. Ltd., for Cpd. 1 is determined. […] Cpd. 1, dissolved in buffer, or just buffer is administered orally and the mice and rats are observed for 14 days after dosing. After 14 days, the animals are sacrificed and necropsy is performed to check for gross evidence of toxicity.

[3] = tested on: CD-1 mice; conditions: 14 days
Procedure: as §1

[4] = tested on: spleen lymphocytes
Description: The effect of the compounds of this invention on the immune response to specific antigens involves immunization of mice with specific antigens such as bovine serum albumin (BSA) or keyhole limpet hemocyanin (KLH). Following immunization, it is possible to assess the cell-mediated or humoral (antibody) immune response to these antigens by various methods:
(1) Lymphocyte stimulation assays can be performed using varying concentrations of the specific antigens as mitogens in the lymphocyte stimulation microculture system described above. The only difference is that the incubation period is extended to five days instead of three as for the polyclonal mitogens.
Mice of the C57BL/6 strain are given i.p. injections of either 50, 100, 200 or 400 mg/kg of Cpd. 1 or buffer for ten days (days 1-10). An antigen, keyhole limpet hemocyanin (KLH), is administered intraperitoneally with Freund's Complete Adjuvant (FCA) on days 1, 7, and 13. Blood samples are taken for assay of the antibody response on days 0, 5, 12, and 17. Spleens are removed, lymphocytes isolated and a lymphocyte stimulation assay with PHA, Con-A or KLH antigen as the mitogens is performed on day 17 of the experiment.

Cc1ccc(C2(O)C(=O)OC3C(O)COC32O)o1.Cc1ccc(C2(O)C(=O)OC3C(O)COC32O)o1.O=C1CCC(=O)O1 (centres unmarked) [Cpd. 1, 2-furylbutyrolactone:succinic anhydride]
Number Dead on Day 3 ([1]; 1,000 mg/kg single i.p.): 0 | Number Dead on Day 3 ([1]; 2,000 mg/kg single i.p.): 0 | Number Dead on Day 3 ([1]; 4,000 mg/kg single i.p.): 7 | Number Dead on Day 3 ([1]; 8,000 mg/kg single i.p.): 10 | Number Dead on Day 3 ([1]; 16,000 mg/kg single i.p.): 10 | LD50 ([1]; purified Cpd. 1, single i.p. injection, 4320 min): > 3000 mg/kg | deaths or signs of toxicity ([2]; 5 g/kg oral): No deaths or signs of toxicity | LD50 ([2]; single oral dose): > 5000 mg/kg | deaths or signs of toxicity ([3]; 5 g/kg oral): No deaths or signs of toxicity | LD50 ([3]; single oral dose): > 5000 mg/kg | Lymphocyte Stimulation Index, Con-A ([4]; 50 mg/kg, Day 17): 19.0 | Lymphocyte Stimulation Index ([4]; 50 mg/kg, KLH 0.025 μg/well, Day 17): 0.0386 | Lymphocyte Stimulation Index ([4]; 50 mg/kg, KLH 0.05 μg/well, Day 17): 0.357 | Lymphocyte Stimulation Index ([4]; 50 mg/kg, KLH 0.5 μg/well, Day 17): 0.415 | Lymphocyte Stimulation Index ([4]; 50 mg/kg, KLH 1.0 μg/well, Day 17): 0.536 | Lymphocyte Stimulation Index ([4]; 100 mg/kg, KLH 0.025 μg/well, Day 17): 0.401 | Lymphocyte Stimulation Index ([4]; 100 mg/kg, KLH 0.05 μg/well, Day 17): 0.526 | Lymphocyte Stimulation Index ([4]; 100 mg/kg, KLH 0.5 μg/well, Day 17): 0.734 | Lymphocyte Stimulation Index ([4]; 100 mg/kg, KLH 1.0 μg/well, Day 17): 0.898 | lymphocyte DNA synthesis (in words) ([4]; 200 mg/kg, Con-A or KLH, day 17): statistically significant increase in lymphocyte DNA synthesis | Lymphocyte Stimulation Index ([4]; 200 mg/kg, KLH 0.025 μg/well, Day 17): 3.91 | Lymphocyte Stimulation Index ([4]; 200 mg/kg, KLH 0.05 μg/well, Day 17): 1.02 | Lymphocyte Stimulation Index ([4]; 200 mg/kg, KLH 0.5 μg/well, Day 17): 4.26 | Lymphocyte Stimulation Index ([4]; 200 mg/kg, KLH 1.0 μg/well, Day 17): 7.45 | Lymphocyte Stimulation Index, Control (no mitogen) ([4]; 400 mg/kg, Day 17): 0.840 | Lymphocyte Stimulation Index ([4]; 400 mg/kg, KLH 0.025 μg/well, Day 17): 1.03 | Lymphocyte Stimulation Index ([4]; 400 mg/kg, KLH 0.05 μg/well, Day 17): 0.667 | Lymphocyte Stimulation Index ([4]; 400 mg/kg, KLH 0.5 μg/well, Day 17): 0.232 | Lymphocyte Stimulation Index ([4]; 400 mg/kg, KLH 1.0 μg/well, Day 17): 0.589
